Measurements reported in patent US10548316B2, “Diarylazole compound and harmful organism control agent” (Nippon Soda Co., Ltd., priority 2015, dated 2020).

Legend:
Format in all cases: in vivo
Lucilia cuprina larvae = test: Contact/feeding effect test on Lucilia cuprina larvae; settings: 1000 ppm in horse meat, 48 hours, read-out: insect mortality rate
Experimental: A DMSO solution of the compound of the present invention was mixed with horse meat to obtain a mixture with a concentration of 1000 ppm. 20 Lucilia cuprina larvae were introduced into a test tube with the mixture. The tube was incubated in a thermostatic chamber with a temperature of 28° C. and a humidity of 80%, and life and death judgement was performed on the larvae 48 hours after the start of the test. The test was repeated twice.

Rhipicephalus microplus = test: Contact effect test on Rhipicephalus microplus; settings: larvae, 24 hours after the chemical treatment, read-out: insect mortality rate
Experimental: A DMSO solution of the compound of the present invention was diluted with water to obtain a test solution with a concentration of 100 ppm. This chemical solution was dropped into a container containing 20 Rhipicephalus microplus larvae, and then incubated in a thermostatic chamber with a temperature of 28° C. and a humidity of 80%. Life or death judgement was performed on the larvae 24 hours after the chemical treatment. The test was repeated twice.

Phyllotreta striolata = test: Efficacy test against Phyllotreta striolata; settings: 168 h, spray on bok choy seedlings, adults, 7 days after releasing, read-out: insect mortality rate
Experimental: (§1) 5 parts of the compound of the present invention, 93.6 parts of dimethylformamide, and 1.4 parts of polyoxyethylene alkylaryl ether were mixed and dissolved to prepare an emulsion (I) of 5% of the active ingredient.
(§2) The insect mortality rate and the control rate were calculated by the following formula. Insect mortality rate (%)=(number of dead insects/number of sample insects)×100 Prevention rate=[1−(Nt)/(Nc)]×100
Emulsion (I) was diluted with water so that the compound of the present invention reaches 125 ppm to prepare a test solution. The above diluted solution was sprayed on bok choy seedlings (seventh true leaf development stage) planted in No. 3 pots. After air-drying, the bok choy seedlings were put in a plastic cup and 10 adult Phyllotreta striolata were released therein. The plastic cup was stored in a thermostatic chamber with a temperature of 25° C. and a humidity of 65%, and life or death judgment was performed 7 days after releasing Phyllotreta triolata, and the insect mortality rate was calculated by the formula. The test was repeated twice.

Musca domestica = test: Efficacy test against Musca domestica; settings: 100 ppm on cube sugar, adult female, after 24 hours, read-out: insect mortality rate
Experimental: as §2
The compound of the present invention was diluted with acetone, followed by dropping to 1 g of cube sugar so that the concentration reaches to 100 ppm. The cube sugar was placed in a plastic cup and 10 adult female Musca domestica were released therein, followed by putting a lid on the cup. The cup was kept at 25° C., and life or death judgement was performed after 24 hours was passed from the releasing of Musca domestica, and the insect mortality rate was calculated by the formula. The test was repeated twice.

Culex pipiens = test: Efficacy test against Culex pipiens; settings: Culex pipiens, 24 h, read-out: insect mortality rate
Experimental: as §1, §2
Emulsion (I) was diluted with water so that the concentration of the compound of the present invention reaches 2 ppm to prepare a chemical solution for test. 20 first-instar larvae of Culex pipiens were released into 100 ml of the chemical solution for test, then the number of dead insects was calculated after 1 day was passed, and the insect mortality rate was calculated by the formula. The test was repeated twice.

Ornithodorus moubata = test: Feeding effect test against Ornithodorus moubata; settings: 10 ppm in defibrin blood of sheep; third-nymphs; 14 days after the blood sucking
Experimental: A DMSO solution of the compound of the present invention was mixed with a defibrin blood of sheep to obtain a mixed solution with a concentration of 10 ppm. 2 ml of this mixed solution was placed in a container and capped with a parafilm membrane. Then, 20 third-nymphs of Ornithodorus moubata ere released to suck the blood through the parafilm membrane for about 30 minutes. Then, the nymphs were transferred to a storage container and incubated in a thermostatic chamber with a temperature of 28° C. and a humidity of 80%, and life or death judgement and developmental stage-investigation was performed 14 days after the blood sucking. The test was repeated twice.

Plutella xylostella = test: Efficacy test against Plutella xylostella; settings: 72 h, cabbage leaves soaked, second-instar larvae, after 3 days, read-out: mortality rate
Experimental: as §1, §2
(§3) Emulsion (I) was diluted with water so that the concentration of the compound of the present invention reaches 125 ppm. Cabbage leaves were soaked in the diluted liquid for 30 seconds. Then the cabbage leaves were put on Petri dishes, followed by inoculating 5 second-instar larvae of Plutella xylostella. The Petri dishes were placed in a thermostatic chamber with a temperature was 25° C. and a humidity of 60%. Life or death judgement was performed after 3 days were passed, and the insect mortality rate was calculated. The test was repeated twice.

Aphis craccivora = test: Efficacy test against Aphis craccivora; settings: 96 h, spray on infested cowpea plants, nymphs, 4 days after spraying, read-out: mortality rate
Experimental: as §1, §2
Cowpea plants were raised in No. 3 pots and the first true leaves were inoculated with Aphis craccivora nymphs. Emulsion (I) was diluted with water so that the concentration of the compound of the present invention reaches 125 ppm, followed by spraying the diluted liquid on the cowpea plants infested with Aphis craccivora nymphs. The cowpea plants were then placed in a thermostatic chamber with a temperature of 25° C. and a humidity of 60%. Life or death judgement was performed after 4 days were passed from the spraying, and the insect mortality rate of Aphis craccivora was calculated. The test was repeated twice.

Aedes aegypti larvae = test: Contact/feeding effect test on Aedes aegypti larvae; settings: final concentration of 10 ppm, first-instar larvae, 48 hours, read-out: insect mortality rate
Experimental: A DMSO solution of the compound of the present invention was diluted with water to obtain a diluted solution with a concentration of 100 ppm. 10 first-instar larvae of Aedes aegypti were placed in each well of a 96-well microtiter plate together with breeding water, and 1/10 volume of the diluted solution with a concentration of 100 ppm was added so that the test was carried out at a final concentration of 10 ppm. The microtiter plate was incubated in a thermostatic chamber with a temperature of 28° C. and a humidity of 80%, and life or death judgement was performed on the larvae was investigated 48 hours after the chemical treatment. The test was repeated twice.

Spodoptera litura = test: Efficacy test against Spodoptera litura; settings: 144 h, cabbage leaves soaked, second-instar larvae, after 6 days, read-out: insect mortality rate
Experimental: as §1, §2
as §3, with “of Spodoptera litura.” for “of Plutella xylostella.”, “after 6” for “after 3”

Rhopalosiphum padi = test: Efficacy test against Rhopalosiphum padi (seed treatment); settings: 0.1 g compound per 10 g wheat seeds, adults released 7 days after seeding, counted after 6 days
Experimental: as §2
Nt: number of parasites in spray-treatment area
Nc: number of parasites in control area
0.1 g of each compound of the present invention was diluted with 2 ml of acetone to prepare chemical solutions for test. 10 g of wheat seeds was added to the chemical solution for test and air dried, followed by seedling 100 seeds in a planter. After keeping the planter in a warm room with a temperature of 25° C. for 7 days, 50 adult Rhopalosiphum padi were released in the planter. The number of surviving parasitized Rhopalosiphum padi was investigated after 6 days were passed, and the prevention rate was calculated by the formula. The test was repeated twice.

Pseudaletia separata = test: Efficacy test against Pseudaletia separata (artificial diet); settings: in vivo
Experimental: as §1, §2
0.8 g of commercially available artificial diet (Insecta US, manufactured by Nosan Corporation) and 1 μl of emulsion (1) were well mixed and 0.2 g of the resulting mixture was packed in a plastic test container (1.4 ml) per each treatment group to prepare test feeds.
2 second-instar larvae of Pseudaletia separata were inoculated into each treatment group and sealed with a plastic lid. The plastic test containers were placed in a thermostatic chamber with a temperature of 25° C., and the insect mortality rate and the food intake amount were investigated on the fifth day. The test was repeated twice.
Further, a test under the same conditions except that the compound of the present invention was removed from emulsion (I) was conducted as a solvent control group.

| Structure (SMILES) | mortality at 1000 ppm (Lucilia cuprina larvae) [%] | mortality at 100 ppm (Rhipicephalus microplus) [%] | mortality at 125 ppm (Phyllotreta striolata) [%] | mortality at 100 ppm (Musca domestica) [%] | mortality at 2 ppm (Culex pipiens) [%] | insect mortality rate (Ornithodorus moubata) [%] | mortality at 125 ppm (Plutella xylostella) [%] | mortality at 125 ppm (Aphis craccivora) [%] | mortality at 10 ppm (Aedes aegypti larvae) [%] | mortality at 125 ppm (Spodoptera litura) [%] | prevention rate (Rhopalosiphum padi) [%] | insect mortality rate (Pseudaletia separata) [%] |
| --- | --- | --- | --- | --- | --- | --- | --- | --- | --- | --- | --- | --- |
| CCS(=O)(=O)c1cc(C(F)(F)F)ccc1-n1ncc(-c2ccc(OC(F)(F)F)cc2)c1N [Compound 1-12, 1-(2-(ethylsulfonyl)-4-(trifluoromethyl)phenyl)-4-(4-(trifluoromethoxy)phenyl)-1H-pyrazol-5-amine] | ≥ 90 | ≥ 90 | ≥ 80 | ≥ 80 | 100 | ≥ 90 | ≥ 80 | ≥ 80 | ≥ 90 | ≥ 80 | – | – |
| CCS(=O)(=O)c1cc(C(F)(F)F)ccc1-n1ncc(-c2ccc(OC(F)(F)F)cc2)c1Cl [Compound 1-17, 5-chloro-1-(2-(ethylsulfonyl)-4-(trifluoromethyl)phenyl)-4-(4-(trifluoromethoxy)phenyl)-1H-pyrazole] | – | – | ≥ 80 | – | – | – | ≥ 80 | ≥ 80 | – | ≥ 80 | – | – |
| CCS(=O)(=O)c1cc(C(F)(F)F)ccc1-n1ncc(-c2ccc(C(F)(F)C(F)(F)F)nc2)c1N [Compound 1-33] | – | – | – | – | – | – | – | – | – | – | ≥ 80 | 100 |
